For test [1], the system named is Hedgehog signalling (Gli-bla NIH3T3 cells, mShh stimulated). The test can be described thus: Hedgehog signalling inhibition assay (Gli-Bla reporter assay in NIH 3T3 cells). The format is cell-based. As for the experimental part:
Hedgehog signalling inhibition assays. The following table 2 represents the average EC50 values for particular compounds of the inventions. Gli-bla NIH3T3 cells (7500 cells/well) were plated the day prior to the assay in a 384-well and 96-format in complete growth medium. […] Cells were stimulated with mShh for 24 hours and then loaded with LiveBLAzer™-FRET B/G Substrate for 3 hours. Emission values at 460 nm and 530 nm were obtained using a standard fluorescence plate reader and the 460/530 Ratios plotted for each treatment (n=4 for each data point).
J. Cancer, 2011, 30(7):472-81).

Test [2] addresses T1, SMO (Homo sapiens, UniProt Q99835).
T1 construct: host or cells: HEK293H cells
Kind of test: SMO BODIPY-CYC binding assay using HEK293H cells.

Where [3] appears, read: Mus musculus, NIH3T3, 24 h, read-out: EC50.

pEC50: −log10 of the molar value. Like-named read-outs stand apart in the source and are kept apart here.

T1 sequence (Q99835 28-787): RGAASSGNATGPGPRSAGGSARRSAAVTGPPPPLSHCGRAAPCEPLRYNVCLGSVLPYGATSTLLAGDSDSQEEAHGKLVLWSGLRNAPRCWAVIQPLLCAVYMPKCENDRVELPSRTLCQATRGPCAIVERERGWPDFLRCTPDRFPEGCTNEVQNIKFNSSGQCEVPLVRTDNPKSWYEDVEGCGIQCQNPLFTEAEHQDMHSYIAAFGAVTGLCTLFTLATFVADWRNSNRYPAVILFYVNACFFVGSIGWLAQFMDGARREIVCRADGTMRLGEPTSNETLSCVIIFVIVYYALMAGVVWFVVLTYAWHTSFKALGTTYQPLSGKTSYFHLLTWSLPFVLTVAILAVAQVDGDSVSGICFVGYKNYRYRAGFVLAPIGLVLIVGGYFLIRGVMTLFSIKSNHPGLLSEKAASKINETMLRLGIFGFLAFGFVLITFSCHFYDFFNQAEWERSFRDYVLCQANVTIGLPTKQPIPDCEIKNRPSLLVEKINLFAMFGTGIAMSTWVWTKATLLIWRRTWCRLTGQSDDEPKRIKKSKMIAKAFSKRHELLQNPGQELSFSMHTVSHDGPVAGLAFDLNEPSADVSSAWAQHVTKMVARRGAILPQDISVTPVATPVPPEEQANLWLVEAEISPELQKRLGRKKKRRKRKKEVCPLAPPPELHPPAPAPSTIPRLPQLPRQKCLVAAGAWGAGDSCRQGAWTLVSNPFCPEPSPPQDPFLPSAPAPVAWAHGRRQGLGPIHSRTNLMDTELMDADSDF

On to `Cc1nn(-c2ccccc2)c(C)c1/C=N/N1CCN(Cc2ccccc2)CC1` [Sant-1, reference compound], for which the pEC50 in test [1] (NIH 3T3 cells, read-out: Gli-Bla reporter assay (EC50)) is 8.30; in test [2] it was 9.23.

Regarding `O=C(Nc1ccc(Cl)c(-c2ncc3ccccc3n2)c1)c1ccc(N2CCCS2(=O)=O)cc1` [Example 89], the pEC50 in test [1] (setting [3]) was 4.85.

For `O=C(Nc1ccc(Cl)c(NC(=O)c2cccc(Cl)c2)c1)c1ccc(N2CCCS2(=O)=O)cc1` [Example 129], the pEC50 in test [1] (setting [3]) is above 8.00.

Consider `O=C(Nc1ccc(Cl)c(-c2ncc3ccccc3n2)c1)c1ccc(N2CCCCS2(=O)=O)cc1` [Example 95], for which, in test [1] (setting [3]), the negative-log EC50 (pEC50) was above 8.00.

Turning to `O=C(Nc1ccc(Oc2cccc(Cl)c2)cc1)c1ccc(N2CCCS2(=O)=O)cc1Cl` [Example 141], in test [1] (setting [3]), the pEC50 is above 8.00.

For `O=C(Nc1ccc(Cl)c(Oc2cccc(Cl)c2)c1)c1ccc(N2CCOCS2(=O)=O)cc1Cl` [Example 137], the pEC50 in test [1] (setting [3]) was above 8.00.

Consider `O=C(Nc1ccc(Cl)c(-c2ccccn2)c1)c1ccc(N2CCOCS2(=O)=O)cc1Cl` [Example 85, 2-chloro-N-(4-chloro-3-(pyridin-2-yl)phenyl)-4-(3,3-dioxido-1,3,4-oxathiazinan-4-yl)benzamide], for which, in test [1] (setting [3]), the negative-log EC50 (pEC50) is above 8.00.

In the case of `O=C(Nc1cc(NC(=O)c2ccc(N3CCCS3(=O)=O)cc2Cl)ccc1Cl)c1cccc(Cl)c1` [Example 120], the pEC50 in test [1] (setting [3]) is above 8.00.

For `O=C(Nc1ccc(Cl)c(NC(=O)c2cccc(Cl)c2)c1)c1ccc(N2CCCS2(=O)=O)c(Cl)c1` [Example 132], the negative logarithm of the EC50 (pEC50) in test [1] (setting [3]) is above 8.00.

For the origin of these results see patent publication US10183013B2, “Cyclic sulfonamide containing derivatives as inhibitors of hedgehog signaling pathway” (NantBioScience, Inc., priority 2012, dated 2019).
